In patent US10975068B2, “6-aminopyridin-3-yl thiazoles as modulators of RORγT” (Janssen Pharmaceutica NV, priority 2016, dated 2021):
Where two headings read alike, the source gives them in different places. Marks after values point to notes of the source that are not given here.

Tests used:
[1] = molecular target: human RORγt ligand binding domain (RORγt LBD) (Homo sapiens (Human), UniProt P51449); assay: RORγt ThermoFluor® assay (thermal shift binding); conditions: read-out: ThermoFluor® Assay, Kd
human RORγt ligand binding domain (RORγt LBD), sequence (P51449 other isoform, or with tags, fused parts or gaps): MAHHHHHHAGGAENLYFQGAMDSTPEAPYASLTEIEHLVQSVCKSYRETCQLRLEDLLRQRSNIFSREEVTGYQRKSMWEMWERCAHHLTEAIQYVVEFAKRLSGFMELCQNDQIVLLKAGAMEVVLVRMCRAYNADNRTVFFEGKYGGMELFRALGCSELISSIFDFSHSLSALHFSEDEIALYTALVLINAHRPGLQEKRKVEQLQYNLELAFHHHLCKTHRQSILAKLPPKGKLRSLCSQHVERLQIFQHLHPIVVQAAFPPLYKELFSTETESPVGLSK
How it was run: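 Binding was inferred from thermal stabilisation (ΔTm) of the E. coli-expressed RORγt LBD (0.065 mg/mL), monitored by 1,8-ANS (60 μM) emission at 500 nm during a 1 °C/min ramp. Buffer was Hepes 100 mM pH 7.0 with NaCl, GSH and Tween-20.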

full-length human RORγt = full-length human RORγt (Homo sapiens (Human), UniProt P51449); assay: RORγt (full-length human) reporter assay, Conditions B or C; type: cell-based; conditions: for RORγt (FL) Reporter Assay B or C, % inhibition (value marked *): marked *: footnote not given; for inhibition at 6 µM: read-out: RORγt (FL) Reporter Assay B or C, % inhibition @ 6 μM, Conditions B or C
full-length human RORγt, sequence (P51449 other isoform, or with tags, fused parts or gaps): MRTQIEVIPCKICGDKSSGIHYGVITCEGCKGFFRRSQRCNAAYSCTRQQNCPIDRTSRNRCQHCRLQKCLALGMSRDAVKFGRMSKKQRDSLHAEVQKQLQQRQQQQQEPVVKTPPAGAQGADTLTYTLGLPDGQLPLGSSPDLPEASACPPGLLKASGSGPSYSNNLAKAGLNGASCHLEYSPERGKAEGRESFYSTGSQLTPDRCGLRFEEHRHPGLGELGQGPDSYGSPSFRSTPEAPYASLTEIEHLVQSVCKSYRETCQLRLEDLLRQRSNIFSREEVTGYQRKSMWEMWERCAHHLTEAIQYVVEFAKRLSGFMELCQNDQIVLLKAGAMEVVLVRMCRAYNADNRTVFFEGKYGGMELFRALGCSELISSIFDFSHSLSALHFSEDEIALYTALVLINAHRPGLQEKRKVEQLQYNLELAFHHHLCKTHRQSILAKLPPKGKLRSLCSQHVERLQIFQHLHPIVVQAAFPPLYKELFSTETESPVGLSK
How it was run: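 Readout is dual luciferase: firefly (GAL4-driven) normalized to DMSO-only and saturating-reference controls, then to CMV-Renilla. Full-length human RORγt fused to GAL4-DBD was transiently expressed in HEK293T; compound exposure ran overnight (16-20 h) starting 4-6 h after transfection, final FBS 1.3%, DMSO 0.1%.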

[2] = Conditions B or C, read-out: RORγt (FL) Reporter Assay B or C, IC50
[3] = at 3 μM compound concentration, read-out: RORγt (FL) Reporter Assay B or C, % inhibition
[4] = read-out: RORγt (FL) Reporter Assay B or C, IC50

| Compound | Kd [1] [nM] | RORγt (FL) Reporter Assay B or C, % inhibition (value marked *) (full-length human RORγt; Conditions B or C) | IC50 (full-length human RORγt; [2]) [µM] | inhibition at 3 µM (full-length human RORγt; [3]) [%] | IC50 (full-length human RORγt; [4]) [µM] | further results |
| --- | --- | --- | --- | --- | --- | --- |
| CC[C@H](Nc1cc(C(F)F)c(-c2sc(C(=O)N[C@@H]3C[C@H]3O)nc2C(=O)N2CCC[C@@H]2C)cn1)C(F)(F)F (relative stereo) [Example 213, 5-(4-(Difluoromethyl)-6-(((S)-1,1,1-trifluorobutan-2-yl)amino)pyridin-3-yl)-N-((1R*,2R*)-2-hydroxycyclopropyl)-4-((S)-2-methylpyrrolidine-1-carbonyl)thiazole-2-carboxamide] | 6.1 | 103* % | 0.019 | – | – | – |
| C[C@H](NC(=O)c1nc(C(=O)N2CC(F)(F)C[C@@H]2C)c(-c2cnc(N[C@@H](C3CC3)C(F)(F)F)cc2C(F)F)s1)C(C)(C)O [Example 313, 5-(6-(((S)-1-Cyclopropyl-2,2,2-trifluoroethyl)amino)-4-(difluoromethyl)pyridin-3-yl)-4-((S)-4,4-difluoro-2-methylpyrrolidine-1-carbonyl)-N—((S)-3-hydroxy-3-methylbutan-2-yl)thiazole-2-carboxamide] | 0.74 | – | – | 106 | 0.036 | – |
| CC[C@H](Nc1cc(C(F)F)c(-c2sc(C(=O)N[C@H]3COC[C@@H]3O)nc2C(=O)N2C3CCC2CC3)cn1)C(F)(F)F [Example 209, 4-((1s,4s)-7-Azabicyclo[2.2.1]heptane-7-carbonyl)-5-(4-(difluoromethyl)-6-(((1S)-1-(trifluoromethyl)propyl)amino)-3-pyridyl)-N-((3S,4R)-4-hydroxytetrahydrofuran-3-yl]thiazole-2-carboxamide] | 3.4 | 99* % | 0.046 | – | – | – |
| C[C@H](Nc1cc(C(F)F)c(-c2sc(C(=O)N[C@H]3CC[C@@H]3O)nc2C(=O)N2CCC[C@@H]2C)cn1)C(F)(F)F (relative stereo) [Example 388, 5-(4-(Difluoromethyl)-6-(((S)-1,1,1-trifluoropropan-2-yl)amino)pyridin-3-yl)-N-((1S*,2S*)-2-hydroxycyclobutyl)-4-((S)-2-methylpyrrolidine-1-carbonyl)thiazole-2-carboxamide] | 8.6 | – | – | 103 | 0.085 | – |
| CC[C@H](Nc1cc(C(F)F)c(-c2sc(C(=O)N[C@@H]3CC[C@@H]3O)nc2C(=O)N2CCC[C@@H]2C)cn1)C(F)(F)F (relative stereo) [Example 381, 5-(4-(Difluoromethyl)-6-(((S)-1,1,1-trifluorobutan-2-yl)amino)pyridin-3-yl)-N-((1R*,2S*)-2-hydroxycyclobutyl)-4-((S)-2-methylpyrrolidine-1-carbonyl)thiazole-2-carboxamide] | 6.7 | – | – | 107 | 0.012 | – |
| C[C@H]1CCCN1C(=O)c1nc(C(=O)N[C@H]2C[C@H](O)C2)sc1-c1cnc(N[C@@H](C2CC2)C(F)(F)F)cc1C(F)F [Example 310, 5-(6-(((S)-1-Cyclopropyl-2,2,2-trifluoroethyl)amino)-4-(difluoromethyl)pyridin-3-yl)-N-((1r,3S)-3-hydroxycyclobutyl)-4-((S)-2-methylpyrrolidine-1-carbonyl)thiazole-2-carboxamide] | 8.7 | – | – | 92 | 0.036 | – |
| C[C@H]1CCCN1C(=O)c1nc(C(=O)N2CC3(COC3)C2)sc1-c1cnc(NC(C)(C)C)cc1C(F)(F)F [Example 368, [5-[6-(tert-Butylamino)-4-(trifluoromethyl)-3-pyridyl]-2-(6-oxa-2-azaspiro[3.3]heptane-2-carbonyl)thiazol-4-yl]-[(2S)-2-methylpyrrolidin-1-yl]methanone] | 1.7 | – | – | 110 | 0.0075 | – |
| CC[C@H](Nc1cc(C(F)F)c(-c2sc(C(=O)NCC(C)(C)O)nc2C(=O)N2CCC[C@@H]2C)cn1)C1CC1 (relative stereo) [Example 166] | 4.7 | 94* % | 0.027 | – | – | – |
| C[C@H](Nc1cc(C(F)F)c(-c2sc(C(=O)NC3CCC3O)nc2C(=O)N2CCC[C@@H]2C)cn1)C(F)(F)F (stereo partly drawn) [Example 389, 5-(4-(Difluoromethyl)-6-(((S)-1,1,1-trifluoropropan-2-yl)amino)pyridin-3-yl)-N-(cis-2-hydroxycyclobutyl)-4-((S)-2-methylpyrrolidine-1-carbonyl)thiazole-2-carboxamide] | 7.7 | – | – | – | 0.14 | RORγt (FL) Reporter Assay B or C, % inhibition (full-length human RORγt; at 3 μM compound concentration): 90* % |
| CC(C)(O)CNC(=O)c1nc(C(=O)N2C3CCC2CC3)c(-c2cnc(NC(C)(C)C3CC3)cc2C(F)F)s1 [Example 97, 4-((1s,4s)-7-Azabicyclo[2.2.1]heptane-7-carbonyl)-5-(6-((2-cyclopropylpropan-2-yl)amino)-4-(difluoromethyl)pyridin-3-yl)-N-(2-hydroxy-2-methylpropyl)thiazole-2-carboxamide] | 1.3 | 111* % | 0.0036 | – | – | – |
| O=C(NC1CCS(=O)(=O)CC1)c1nc(C(=O)N2C3CCC2CC3)c(-c2cnc(N[C@@H](C3CC3)C(F)(F)F)cc2C(F)F)s1 [Example 436, 4-((1s,4s)-7-Azabicyclo[2.2.1]heptane-7-carbonyl)-5-[6-[[(1S)-1-cyclopropyl-2,2,2-trifluoro-ethyl]amino]-4-(difluoromethyl)-3-pyridyl]-N-(1,1-dioxothian-4-yl)thiazole-2-carboxamide] | 1 | – | – | – | 0.048 | inhibition at 1 µM (full-length human RORγt; at 1 μM compound concentration, read-out: RORγt (FL) Reporter Assay B or C, % inhibition): 117% |
| C[C@H](Nc1cc(C(F)(F)F)c(-c2sc(C(=O)NCC(C)(C)O)nc2C(=O)N2CCCC[C@@H]2C)cn1)C1CC1 [Example 39, 5-(6-(((S)-1-Cyclopropylethyl)amino)-4-(trifluoromethyl)pyridin-3-yl)-N-(2-hydroxy-2-methylpropyl)-4-((S)-2-methylpiperidine-1-carbonyl)thiazole-2-carboxamide] | 0.12 | – | 0.013 | – | – | inhibition at 6 µM (full-length human RORγt): 105% |
| C[C@H](Nc1cc(C(F)F)c(-c2sc(C(=O)N[C@H]3C[C@H](O)C3)nc2C(=O)N2C3CCC2CC3)cn1)C(F)(F)F [Example 221, 4-((1s,4s)-7-Azabicyclo[2.2.1]heptane-7-carbonyl)-5-(4-(difluoromethyl)-6-(((1S)-2,2,2-trifluoro-1-methyl-ethyl)amino)-3-pyridyl)-N-((1r,3S)-3-hydroxycyclobutyl)thiazole-2-carboxamide] | 27 | 103* % | 0.078 | – | – | – |
| C[C@H](CO)NC(=O)c1nc(C(=O)N2CCC[C@@H]2C)c(-c2cnc(NC(C)(C)C)cc2C(F)(F)F)s1 [Example 346, 5-[6-(tert-Butylamino)-4-(trifluoromethyl)-3-pyridyl]-N-[(1R)-2-hydroxy-1-methyl-ethyl]-4-[(2S)-2-methylpyrrolidine-1-carbonyl]thiazole-2-carboxamide] | 1.4 | – | – | 112 | 0.013 | – |
| C[C@H]1CCCN1C(=O)c1nc(C(=O)NCC(C)(C)O)sc1-c1cnc(NC2CCCC2)cc1C(F)F [Example 42, (S)-5-(6-(Cyclopentylamino)-4-(difluoromethyl)pyridin-3-yl)-N-(2-hydroxy-2-methylpropyl)-4-(2-methylpyrrolidine-1-carbonyl)thiazole-2-carboxamide] | 9.3 | – | 0.042 | – | – | inhibition at 6 µM (full-length human RORγt): 111% |
| CC[C@H](Nc1cc(C(F)F)c(-c2sc(C(=O)N[C@H]3CC[C@H]3O)nc2C(=O)N2CCC[C@@H]2C)cn1)C(F)(F)F (relative stereo) [Example 380, 5-(4-(Difluoromethyl)-6-(((S)-1,1,1-trifluorobutan-2-yl)amino)pyridin-3-yl)-N-((1S*,2R*)-2-hydroxycyclobutyl)-4-((S)-2-methylpyrrolidine-1-carbonyl)thiazole-2-carboxamide] | 1.6 | – | – | 108 | 0.018 | – |
| C[C@H]1CCCN1C(=O)c1nc(C(=O)NC2COC2)sc1-c1cnc(NC(C)(C)C)cc1C(F)(F)F [Example 259, 5-[6-(tert-Butylamino)-4-(trifluoromethyl)-3-pyridyl]-4-[(2S)-2-methylpyrrolidine-1-carbonyl]-N-(oxetan-3-yl)thiazole-2-carboxamide] | 3 | – | – | 101 | 0.025 | – |
| C[C@H]1CCCN1C(=O)c1nc(C(=O)NC2(CO)CCC2)sc1-c1cnc(NC(C)(C)C)cc1C(F)(F)F [Example 262, 5-[6-(tert-Butylamino)-4-(trifluoromethyl)-3-pyridyl]-N-[1-(hydroxymethyl)cyclobutyl]-4-[(2S)-2-methylpyrrolidine-1-carbonyl]thiazole-2-carboxamide] | 1.6 | – | – | 104 | 0.02 | – |
| CC[C@H](Nc1cc(C(F)(F)F)c(-c2sc(C(=O)N[C@@H]3COC[C@H]3O)nc2C(=O)N2C3CCC2CC3)cn1)C(F)(F)F [Example 155] | 1.1 | 103* % | – | – | – | IC50 (full-length human RORγt; RORγt (FL) Reporter Assay B or C, IC50 (μM), Conditions B or C): 0.0058 µM |
| C[C@H]1CCCN1C(=O)c1nc(C(=O)NC2CN(C)C2)sc1-c1cnc(NC(C)(C)C)cc1C(F)(F)F [Example 356, 5-[6-(tert-Butylamino)-4-(trifluoromethyl)-3-pyridyl]-N-(1-methylazetidin-3-yl)-4-[(2S)-2-methylpyrrolidine-1-carbonyl]thiazole-2-carboxamide] | 47 | – | – | 94 | 0.035 | – |
